The assay deals with HT-29 cells. The experiment in a line: HT-29 necroptosis cell viability assay (TNF-α/SMAC mimetic/zVAD-FMK, CellTiter-Glo). It counts as cell-based. Particulars: Homo sapiens. The essentials: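 HT-29 cells (~5,000/well, overnight) in FBS-free McCoy's 5A with TNF-α 10 ng/ml, SMAC mimetic 6 μM and zVAD-FMK 10 μM plus 10-point 1:3 compound titration, 20 h at 37°C. ATP measured by CellTiter-Glo luminescence; IC50 as geometric mean of duplicates.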
Background: ATP-based viability assays read luminescence as a measure of living cells.

The mark [1] stands for this setting: HT-29, HT-29 necroptosis cell viability, IC50 class symbols, read-out: Activity.
[2] abbreviates: HT-29 cells stimulated with TNF-α (10 ng/ml), SMAC mimetic (6 μM) and zVAD-FMK (10 μM), 20 hours, CellTiter-Glo ATP luminescence, geometric mean IC50 from 10 points, read-out: Activity.
[3] abbreviates: HT-29, HT-29 necroptosis cell viability assay, class symbols for IC50, read-out: Activity.

Where a name gives a salt, the structure may show the parent alone. Read-outs that look alike come from different tables or passages of the source.

In the case of `CC(C)(C)CCNc1cc(Oc2ccc(-n3ncn(Cc4c(F)cccc4F)c3=O)cc2)ccn1` [Example 385, 4-(2,6-difluorobenzyl)-2-(4-((2-((3,3-dimethylbutyl)amino)pyridin-4-yl)oxy)phenyl)-2,4-dihydro-3H-1,2,4-triazol-3-one], under setting [1], the IC50 was 1000 to 10000 nM.

Turning to `COC(=O)c1nc(C)c(Oc2ccc(-n3nc4n(c3=O)C(c3ccccc3)CC4)cc2F)s1` (centres unmarked) [Example 34, methyl 5-(2-fluoro-4-(3-oxo-5-phenyl-6,7-dihydro-3H-pyrrolo[2,1-c][1,2,4]triazol-2(5H)-yl)phenoxy)-4-methylthiazole-2-carboxylate], the IC50 under setting [2] lay within 100 to 1000 nM.

For `Cc1nc(CO)c(Oc2ccc(-n3ncn(Cc4c(F)cccc4F)c3=O)cc2)s1` [Example 146], the IC50 under setting [3] lay within 100 to 1000 nM.

As to `Cc1csc(Cn2cnn(-c3ccc(Oc4sc(C(C)(C)O)nc4C)c(F)c3)c2=O)n1` [Example 578, 2-(3-fluoro-4-((2-(2-hydroxypropan-2-yl)-4-methylthiazol-5-yl)oxy)phenyl)-4-((4-methylthiazol-2-yl)methyl)-2,4-dihydro-3H-1,2,4-triazole-3-one], the IC50 under setting [3] was 100 to 1000 nM.

Turning to `Cc1nc(C2CN(C(=O)OC(C)(C)C)C2)sc1Oc1ccc(-n2ncn(Cc3c(F)cccc3F)c2=O)cc1F` [Example 41, tert-butyl 3-(5-(4-(4-(2,6-difluorobenzyl)-5-oxo-4,5-dihydro-1H-1,2,4-triazol-1-yl)-2-fluorophenoxy)-4-methylthiazol-2-yl)azetidine-1-carboxylate], the IC50 under setting [2] was < 100 nM.

Turning to `Cc1nc(C(=O)N2C[C@H](O)[C@@H]2C)sc1Oc1ccc(-n2ncn(Cc3c(F)cccc3F)c2=O)cc1F` [Example 588, 4-(2,6-difluorobenzyl)-2-(3-fluoro-4-((2-((2S,3S)-3-hydroxy-2-methylazetidine-1-carbonyl)-4-methylthiazol-yl)oxy)phenyl)-2,4-dihydro-3H-1,2,4-triazol-3-one], the IC50 under setting [3] was < 100 nM.

For `Cc1nc(N2CC(C)(OC(F)(F)F)C2)sc1Oc1ccc(-n2ncn(Cc3c(F)cccc3F)c2=O)cc1` [Example 57, 4-(2,6-difluorobenzyl)-2-(4-((4-methyl-2-(3-methyl-3-(trifluoromethoxy)azetidin-1-yl)thiazol-5-yl)oxy)phenyl)-2,4-dihydro-3H-1,2,4-triazol-3-one], the IC50 under setting [2] was < 100 nM.

In the case of `Cc1nc(N2CC(C)(N)C2)sc1C(=O)c1ccc(-n2ncn(Cc3c(F)cccc3F)c2=O)cc1` [Example 507, 2-(4-(2-(3-amino-3-methylazetidin-1-yl)-4-methylthiazole-5-carbonyl)phenyl)-4-(2,6-difluorobenzyl)-2,4-dihydro-3H-1,2,4-triazol-3-one trifluoroacetate], the IC50 under setting [3] was 100 to 1000 nM.

Take `CC(C)(O)C#Cc1cc(Oc2ccc(-n3ncn(Cc4c(F)cccc4F)c3=O)cc2)ccn1` [Example 535, 4-(2,6-difluorobenzyl)-2-(4-((2-(3-hydroxy-3-methylbut-1-yn-1-yl)pyridin-4-yl)oxy)phenyl)-2,4-dihydro-3H-1,2,4-triazol-3-one]: the IC50 under setting [3] is 100 to 1000 nM.

With `Cc1nc(C2(F)CC(N)C2)sc1Oc1ccc(-n2ncn(Cc3c(F)cccc3F)c2=O)cc1F` (centres unmarked) [Example 109, 2-(4-((2-(3-amino-1-fluorocyclobutyl)-4-methylthiazol-5-yl)oxy)-3-fluorophenyl)-4-(2,6-difluorobenzyl)-2,4-dihydro-3H-1,2,4-triazol-3-one], the IC50 under setting [2] was < 100 nM.

Consider `CCC(O)(CC)c1nc(C)c(Oc2ccc(-n3ncn(Cc4c(F)cccc4F)c3=O)cc2F)s1` [Example 581, 4-(2,6-difluorobenzyl)-2-(3-fluoro-4-((2-(3-hydroxypentan-3-yl)-4-methylthiazol-5-yl)oxy)phenyl)-2,4-dihydro-3H-1,2,4-triazol-3-one], for which, under setting [3], the IC50 is < 100 nM.

Regarding `Cc1nc(N2CC(C#N)C2C)sc1Oc1ccc(-n2ncn(Cc3c(F)cccc3F)c2=O)cc1` (centres unmarked) [Example 48, 1-(5-(4-(4-(2,6-difluorobenzyl)-5-oxo-4,5-dihydro-1H-1,2,4-triazol-1-yl)phenoxy)-4-methylthiazol-2-yl)-2-methylazetidine-3-carbonitrile], under setting [2], the IC50 is < 100 nM.

Take `Cc1nc(Br)sc1Oc1ncc(-n2ncn(Cc3c(F)cccc3F)c2=O)cc1F` [Example 645, 2-(6-((2-bromo-4-methylthiazol-5-y1)oxy)-5-fluoropyridin-3-yl)-4-(2,6-difluorobenzyl)-2,4-dihydro-3H-1,2,4-triazol-3-one]: under “HT-29, HT-29 cells, necroptosis induced by TNF-α/SMAC mimetic/zVAD-FMK, CellTiter-Glo, read-out: Activity (IC50 class)”, the IC50 was < 100 nM.

`NC1CN(c2cc(Oc3ccc(-n4ncn(Cc5c(F)cccc5F)c4=O)cc3)ccn2)C1` [Example 322, 2-(4-((2-(3-aminoazetidin-1-yl)pyridin-4-yl)oxy)phenyl)-4-(2,6-difluorobenzyl)-2,4-dihydro-3H-1,2,4-triazol-3-one]: under setting [1], the IC50 lay within 100 to 1000 nM.

In the case of `Cc1nc(N2C[C@@H](N)[C@@H]2C)sc1Oc1ccc(-n2ncn(Cc3c(F)cccc3F)c2=O)cc1` [Example 69, 2-(4-((2-((2S,3R)-3-amino-2-methylazetidin-1-yl)-4-methylthiazol-5-yl)oxy)phenyl)-4-(2,6-difluorobenzyl)-2,4-dihydro-3H-1,2,4-triazol-3-one], the IC50 under setting [2] was < 100 nM.

In the case of `O=c1n(Cc2c(F)cccc2F)cnn1-c1ccc(Oc2ccnc(NCC3CCO3)c2)cc1` (centres unmarked) [Example 279, 4-(2,6-difluorobenzyl)-2-(4-((2-((oxetan-2-ylmethyl)amino)pyridin-4-yl)oxy)phenyl)-2,4-dihydro-3H-1,2,4-triazol-3-one], the IC50 under setting [1] is 100 to 1000 nM.

With `N#Cc1cnc(Oc2ccc(-n3ncn(Cc4c(F)cccc4F)c3=O)cc2)s1` [Example 77, 2-(4-(4-(2,6-difluorobenzyl)-5-oxo-4,5-dihydro-1H-1,2,4-triazol-1-yl)phenoxy)thiazole-5-carbonitrile], the IC50 under setting [2] lay in the range of 100 to 1000 nM.

Consider `CCc1c(Oc2ccc(-n3nc4n(c3=O)[C@H](c3ccccc3)CC4)cc2F)nsc1C(N)=O` (single isomer, unassigned) [Example 686], for which the IC50 under setting [2] was < 100 nM.

For the compound `NC(=O)c1nnc(Oc2ccc(-n3nc4n(c3=O)[C@H](c3ccccc3)CC4)cc2F)s1` (single isomer, unassigned) [Example 687], the IC50 under setting [2] was < 100 nM.

As to `Cc1nc(C(C)O)sc1Oc1ccc(-n2nc3n(c2=O)[C@H](c2ccccc2)CC3)cc1F` (single isomer, unassigned) [Example 149], under setting [3], the IC50 was < 100 nM.

With `Cc1nc(N2C[C@H](C#N)[C@@H]2C)sc1Cc1ccc(-n2ncn(Cc3c(F)cccc3F)c2=O)cc1F` [Example 61, (2S,3S)-1-(5-(4-(4-(2,6-difluorobenzyl)-5-oxo-4,5-dihydro-1H-1,2,4-triazol-1-yl)-2-fluorobenzyl)-4-methylthiazol-2-yl)-2-methylazetidine-3-carbonitrile formate], the IC50 under setting [2] is < 100 nM.

With `N#CC1CC(Nc2cc(Oc3ccc(-n4ncn(Cc5c(F)cccc5F)c4=O)cc3)ccn2)C1` (centres unmarked) [Example 351, 3-((4-(4-(4-(2,6-difluorobenzyl)-5-oxo-4,5-dihydro-1H-1,2,4-triazol-1-yl)phenoxy)pyridin-2-yl)amino)cyclobutane-1-carbonitrile], the IC50 under setting [1] lay within 100 to 1000 nM.

On to `Cc1nn(Cc2ccc(-n3ncn(Cc4c(F)cccc4F)c3=O)cc2)cc1C#N` [Example 190, 1-(4-(4-(2,6-difluorobenzyl)-5-oxo-4,5-dihydro-1H-1,2,4-triazol-1-yl)benzyl)-3-methyl-1H-pyrazole-4-carbonitrile], for which the IC50 under setting [3] is < 100 nM.

(Values after US20250179061A1 (SIRONAX LTD., priority 2022, published 2025).)
